According to paper PMC12593396 (2025):

Key:
[1] = test system: Cy5–3WJ-T3 (DNA, junction) CGGAACGGCACTCGTTTCGAGTGCAGCGTGGTTTCCACGCTCGTTCCG; experiment: MST; conditions: 100 mM NaCl, 10 mM Na cacodylate
[2] = test system: 4WJ (DNA, junction) GCCTAGCATGATACTGCTACCG/CGGTAGCAGTACCGTTGGTGGC/GCCACCAACGGCGTCAACTGCC/GGCAGTTGACGTCATGCTAGGC; experiment: UV melting; conditions: 100 mM NaCl; 10 mM Na cacodylate; 1 equivalent compound
[3] = test system: 3WJ-T6 (DNA, junction) ACTCTTCTCGTTTTTTCGAGAGCGACTTTTTTGTCGCAGAGT; experiment: ITC; conditions: 100 mM NaCl, 10 mM sodium cacodylate, pH 7.4, 25 °C, at ITC detection limit
[4] = test system: FAM–4WJ (DNA, junction) GCCTAGCATGATACTGCTACCG/CGGTAGCAGTACCGTTGGTGGC/GCCACCAACGGCGTCAACTGCC/GGCAGTTGACGTCATGCTAGGC; experiment: MST; conditions: 100 mM NaCl; 10 mM Na cacodylate; not saturated, highest 100 μM
[5] = test system: DS-21 (CD) (DNA, duplex) CCTTCACGCGAACGTAATCCT/AGGATTACGTTCGCGTGAAGG; experiment: CD; conditions: 1 equivalent compound
[6] = test system: Y-fork (DNA, junction) CGGTAGCAGTACCGTTGGTGGC/GCCACCAACGGCGTCAACTGCC; experiment: PAGE competition; conditions: competes with 3WJ-FAM; ~22% decrease of 3WJ at 4 equivalents
[7] = test system: DS-21 (MST) (DNA, duplex) CCTTCACGCGAACGTAATCCT/AGGATTACGTTCGCGTGAAGG; experiment: MST; conditions: highest tested 50 μM; authors suggest Kd at best high micromolar

SMILES	Kd ([1]; 0.1% Tween-20, 25 °C, 1 nM DNA)	ΔTm [2] [°C]	Kd [3]	Kd [4] [µM]	binding [5]	Kd ([1]; 0.1% Tween, 25 °C, 20 nM DNA)	binding [6]	binding [7]	Kd ([3]; 0.5% acetonitrile)
C(=Nc1ccc(Cc2ccc(N=Cc3ccccn3)cc2)cc1)c1ccccn1.C(=Nc1ccc(Cc2ccc(N=Cc3ccccn3)cc2)cc1)c1ccccn1.C(=Nc1ccc(Cc2ccc(N=Cc3ccccn3)cc2)cc1)c1ccccn1.[Ni+2].[Ni+2]	5.15 ± 0.67 × 10^–10 M	8.8 ± 1.0	7.17 ± 0.51 × 10^–9 M						
[Pt+2].[Pt+2].c1cncc(Oc2ccc(Oc3cccnc3)cc2)c1.c1cncc(Oc2ccc(Oc3cccnc3)cc2)c1.c1cncc(Oc2ccc(Oc3cccnc3)cc2)c1.c1cncc(Oc2ccc(Oc3cccnc3)cc2)c1		6.0 ± 1.1		> 4	weak	1.22 ± 0.22 × 10^–8 M	weak	no	9.94 ± 4.36 × 10^–9 M
